Target: 3T3 ROZ cells (Mus musculus, UniProt P21729)
Experiment: Inhibition of bombesin-stimulated mitogenesis (3H-thymidine uptake) of quiescent 3T3 ROZ cells
Format: cell-based
Details: compared with the peptide from the other stereoisomer at the hydroxy position; test not named at b235
Description: Antagonistic activity was measured by inhibition of the mitogenic stimulation of quiescent 3T3 ROZ cells. […] Cells were incubated for eighteen hours with 10 ng/mL of BN either alone or in the presence of an antagonist. Cells were then pulsed-labeled for 2 hours with ^3 H-thymidine and washed. The incorporated ^3 H was then counted.
Potency of antagonists was measured by inhibition of this maximum response down to baseline level. IC50 values were determined from titration curves.

Chain of 3T3 ROZ cells (P21729 whole entry): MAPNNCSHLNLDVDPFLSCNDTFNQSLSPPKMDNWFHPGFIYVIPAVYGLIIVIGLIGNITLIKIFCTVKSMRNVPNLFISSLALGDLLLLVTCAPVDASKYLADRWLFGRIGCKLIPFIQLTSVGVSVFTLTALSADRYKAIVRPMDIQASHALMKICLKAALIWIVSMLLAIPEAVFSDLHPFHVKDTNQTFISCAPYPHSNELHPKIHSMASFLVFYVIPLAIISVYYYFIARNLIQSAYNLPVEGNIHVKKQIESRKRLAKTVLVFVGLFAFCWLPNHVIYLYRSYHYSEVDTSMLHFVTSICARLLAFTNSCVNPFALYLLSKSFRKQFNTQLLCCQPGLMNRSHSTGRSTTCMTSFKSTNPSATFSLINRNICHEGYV

CC(C)[C@H](NC(=O)[C@H](C)NC(=O)[C@H](Cc1c[nH]c2ccccc12)NC(=O)[C@H](Cc1c[nH]cn1)NC(=O)CCc1ccccc1)C(=O)N[C@H](C)C(=O)N[C@@H](Cc1c[nH]cn1)C(=O)N1CCC[C@@H]1C(O)CC(=O)N[C@@H](Cc1ccccc1)C(N)=O (single isomer, unassigned) [N--((3-Phenyl)Propionyl)--HisTrpAlaVal D--AlaHis(3-(2-Pyrrolidinyl-3Hydroxy)Propionyl)--Phe--NH2]
relative activity of the two peptides made from the two hydroxy stereoisomers: the more active of the two
